Patent US9273018B2, “Piperazine derivatives” (St. Mary's University, priority 2011, dated 2016)

Tests used:
Type in all cases: cell-based
HT29 colon cancer cells = test: Cytotoxicity of HT29 colon cancer cells (relative cell density); details: Homo sapiens, HT-29, relative cell density as percent of control, FIG. 3, read-out: LD50 (the source's name)
A549 lung cancer cells = test: Cytotoxicity of A549 lung cancer cells (relative cell density); details: relative cell density as percent of control, FIG. 2
Method: A549 lung cancer cells were cultured according to established protocols (Lieber M. et al., Int. J. Cancer 17: 62-70, 1976). Temozolomide and dacarbazine were separately added to the cell culture media at increasing doses and the relative cell density, as a percent of control cells not exposed to temozolomide or dacarbazine, was calculated.
To test the cytotoxic effect of 1-[(E)-2-(4-nitrophenyl)diazen-1-yl]-4-phenylpiperazine, methyl 4-[(E)-2-(4-phenylpiperazin-1-yl)diazen-1-yl]benzoate, 1-{4[(E)-2-[4-(3,4-dichlorophenyl)piperazin-1-yl]phenyl}ethan-1-one, 1-{4-[(E)-2-[4-pyridin-2-yl)piperazin-1-yl]diazen-1-yl]phenyl}ethan-1-one, serial dilutions of the compounds were made and added to the cell culture media containing the A549 lung cancer cells. The relative cell density, as a percent of control cells not exposed to temozolomide, dacarbazine or the experimental compounds, was calculated.

[1] = test system: U87MG glioblastoma cancer cells; test: Cytotoxicity of glioblastoma cancer cells (relative cell density); details: Homo sapiens, U-87 MG, relative cell density as percent of control, FIG. 1, read-out: LD50 (the source's name)
Method: U87MG glioblastoma cancer cells were cultured according to established protocols (Martinkova et al., Cytotoxicity of and DNA adduct formation by ellipicine in human U87MG glioblastoma cancer cells. Neuro Endocrinol Lett 30 (Suppl 1):60-6, 2009). Temozolomide was added to the cell culture media at increasing doses and the relative cell density, as a percent of control cells not exposed to temozolomide, was calculated. Temozolomide is one of the primary treatments for glioblastoma type cancers and dacarbazine is an antineoplastic chemotherapy used in the treatment of various cells.
To test the cytotoxic effect of 1-[(E)-2-(4-nitrophenyl)diazen-1-yl]-4-phenylpiperazine, 4-[(E)-2-(4-phenylpiperazin-1-yl)diazen-1-yl]benzonitrile, methyl 4-[(E)-2-(4-phenylpiperazin-1-yl)diazen-1-yl]benzoate, methyl 4-[(E)-2-[4-(4-chlorophenyl)piperazin-1-yl)diazen-1-yl]benzoate, 1-[(E)-2-(4-bromophenyl)diazen-1-yl]-4-[(3-methylphenyl)methyl]piperazine, 4-[(E)-2-{4-[(3-methylphenyl)methyl]piperazin-1-yl}diazen-1-yl]benzonitrile serial dilutions of the compounds were made and added to the cell culture media containing the U87MG glioblastoma cancer cells. The relative cell density, as a percent of control cells not exposed to temozolomide, dacarbazine or the experimental compounds, was calculated.

## CC(=O)c1ccc(/N=N/N2CCN(c3ccccn3)CC2)cc1 [Compound 45]
HT29 colon cancer cells
  IC50: 11.2 µM
A549 lung cancer cells
  LD50: 15.6 µM

## N#Cc1ccccc1N1CCN(/N=N/c2ccc(Br)cc2)CC1 [Compound 49, 2-{4-[(E)-2-(4-bromophenyl)diazen-1-yl]piperazin-1-yl}benzonitrile]
HT29 colon cancer cells
  IC50: 5.2 µM

## CN(C)/N=N/c1[nH]cnc1C(N)=O [dacarbazine, reference compound]
HT29 colon cancer cells
  IC50: 25.2 µM
A549 lung cancer cells
  LD50: 25.7 µM
[1]
  IC50: 25 µM

## Cc1cccc(CN2CCN(/N=N/c3ccc(Br)cc3)CC2)c1 [Compound 70, 1-[(E)-2-(4-bromophenyl)diazen-1-yl]-4-[(3-methylphenyl)methyl]piperazine]
HT29 colon cancer cells
  IC50: 17.6 µM
[1]
  IC50: 12.2 µM

## COC(=O)c1ccc(/N=N/N2CCN(c3ccc(Cl)cc3)CC2)cc1 [Compound 12, methyl 4-[(E)-2-[4-(4-chlorophenyl)piperazin-1-yl)diazen-1-yl]benzoate]
[1]
  IC50: 22.2 µM

## Cc1cccc(CN2CCN(/N=N/c3ccc(C#N)cc3)CC2)c1 [Compound 68, 4-[(E)-2-{4-[(3-methylphenyl)methyl]piperazin-1-yl}diazen-1-yl]benzonitrile]
HT29 colon cancer cells
  IC50: 13.5 µM
[1]
  IC50: 14 µM

## COC(=O)c1ccc(/N=N/N2CCN(c3ccccc3)CC2)cc1 [Compound 3, Methyl 4-[(E)-2-(4-phenylpiperazin-1-yl)diazen-1-yl]benzoate]
HT29 colon cancer cells
  IC50: 3.9 µM
A549 lung cancer cells
  LD50: 25.5 µM
[1]
  IC50: 16.2 µM

## Cc1ccc(/N=N/N2CCN(c3ccccc3)CC2)cc1 [Compound 7, 1-[(E)-2-(4-methylphenyl)diazen-1-yl]-4-phenylpiperazine]
HT29 colon cancer cells
  IC50: 9.6 µM

## O=[N+]([O-])c1ccc(/N=N/N2CCN(c3ccccc3)CC2)cc1 [Compound 1, 1-[(E)-2-(4-nitrophenyl)diazen-1-yl]-4-phenylpiperazine]
HT29 colon cancer cells
  IC50: 2.5 µM
A549 lung cancer cells
  LD50: 5.27 µM
[1]
  IC50: 4.36 µM

## Cn1nnc2c(C(N)=O)ncn2c1=O [Temozolomide, reference compound]
A549 lung cancer cells
  LD50: 60.4 µM
[1]
  IC50: 25.5 µM

## CC(=O)c1ccc(/N=N/N2CCN(c3ccc(Cl)c(Cl)c3)CC2)cc1 [Compound 22]
HT29 colon cancer cells
  IC50: 3.4 µM
A549 lung cancer cells
  LD50: 3.4 µM

## COC(=O)c1ccc(/N=N/N2CCN(c3ccccn3)CC2)cc1 [Compound 42, methyl 4-[(E)-2-[4-(pyridin-2-yl)piperazin-1-yl]diazen-1-yl]benzoate]
HT29 colon cancer cells
  IC50: 14.6 µM

## N#Cc1ccc(/N=N/N2CCN(c3ccccc3)CC2)cc1 [Compound 2, 4-[(E)-2-(4-phenylpiperazin-1-yl)diazen-1-yl]benzonitrile]
HT29 colon cancer cells
  IC50: 2.6 µM
[1]
  IC50: 12.4 µM
